This note sets out measurements from patent US20230322933A1, “MODEL FOR PREDICTION OF TOLERABILITY ISSUES IN CONNECTION WITH INTRAVENOUS ADMINISTRATION OF THERAPEUTIC ANTIBODIES” (BIOINVENT INTERNATIONAL AB, priority 2020, published 2023).

Data set [1] deals with wildtype C57/BL6 mice. Nature of the data set: Platelet counts in fresh mouse blood (Vetscan) after antibody injection. The class given is in vivo. The conditions noted are these: pre i.v. injection of 10 mg/kg AT-130-2 IgG2a. The procedure: Blood samples were collected from vena saphena 20 min post injection of bulk dose of anti-CD32B for instant blood count analysis. For liver enzyme and cytokine analysis, the mice were bled from the aorta under isoflurane anesthesia just prior to sacrifice. Samples for liver enzymes and cytokines were collected 1 h and respectively 3 h after bulk dose.
Platelet counts were analyzed in fresh blood using a Vetscan (Vetscan HM5 Abaxis, Triolab).
Blood samples were collected from vena saphena for instant blood count analysis. For serum concentrations of AT130-2, liver enzyme and cytokine analysis, the mice were bled from the aorta under isoflurane anesthesia just prior to sacrifice.
Blood samples were collected from vena saphena for instant blood count analysis.

Data set [2] relates to wildtype C57/BL6 mice. Nature of the data set: Macroscopic IRRs (scoring 0-2) in mice after injection of surrogate antibody, with or without premedication or split-dosing. The data set is classed as in vivo, mouse. The conditions noted are these: for effect of anti-histamine premedication alone on IRRs / macroscopic symptoms: pre i.v. injection of 10 mg/kg AT-130-2 IgG2a; for effect of adding anti-histamine to two doses of corticosteroid: with 40 mg/kg Betamethasone (24 hours and 1 hour) pre i.v. 10 mg/kg AT-130-2 IgG2a, macroscopic symptoms and platelet counts; for inhibition of IRRs by other pre-medications: given i.p. 1 h prior to i.v. AT-130-2 IgG2a bulk dose 200 ug/mouse. The arrangement: key to grade of macroscopic symptoms with single premedication: 0: No visible symptoms; 1: Isolation, decreased activity; 2: Isolation, decreased activity, impaired balance, piloerection, hunching followed by un-natural body posture. The procedure:
Six to eight weeks-old (17-20 g) female C57/BL6 and Balb C mice were obtained from Taconic or Janvier. Mice were injected i.v with mouse anti-CD32B AT-130-2 IgG2a either as a bulk dose of 200 ug/mouse or as a split-dose with 8 ug/mouse followed by 200 ug/mouse.
For the corticosteroid treatment, Betapred (betamethasone, VNR: 008938, Alfasigma S.P.A.) was used at 10 mg/kg which is a suboptimal dose in these mouse models.
Split-dosing was initiated 24 h post corticosteroid treatment with 8 ug/mouse of mouse anti-CD32B AT-130-2 IgG2a i.v. followed by a bulk-dose of 200 ug/mouse 20-40 minutes later. In parallel mice were injected with only the bulk-dose.
Mice were monitored post injection with regards to changes in behavior and macroscopic symptoms such as isolation, mobility, and fur condition. Macroscopic IRRs scoring system of 0-2 was set up based on the observations.
Other premedications evaluated were anti-PAF (CV3988, sc-201015, Santa Cruz 20 mg/kg), anti-IL6 (clone 15A7, BE0047, Bioxcell, 10 mg/kg), anti-histamine (Zantac, VNR: 077875, GlaxoSmithKline AB, 5 mg/kg) or a leukotriene-antagonist (131064, Apoex, 4 mg/kg). These premedications were given i.p 1 h prior to injection i.v of mouse anti-CD32B AT-130-2 IgG2a as a bulk dose of 200 ug/mouse.
Six to eight weeks-old (17-20 g) female C57/BL6 mice were obtained from Taconic. Mice were injected either intra-venous (i.v.), […] (i.p.) or sub-cutaneous (s.c.) with mouse anti-CD32B AT-130-2 IgG2a in doses ranging from 1 μg-400 μg/mouse.
For the corticosteroid treatment, Betapred (betamethasone, VNR: 008938, Alfasigma S.P.A.) or Dexamethasone (Cat. No: S1322, batch no: 02, Selleckchem) was used. For the anti-histamine treatment Zyrlex (10 mg/ml, VNR: 523084, MACURE PHARMA ApS), Zantac (25 mg/ml, VNR: 077875, GlaxoSmithKline AB) or Aeurius (0.5 mg/ml, VNR: 097288, Merck Sharp & Dohme BV) was used.
Mice were monitored post injection with regard to changes in behavior and macroscopic symptoms such as isolation, mobility, and fur condition. Macroscopic IRRs scoring system of 0-2 was set up based on the observations: […]
For the corticosteroid treatment, Betapred (betamethasone, VNR: 008938, Alfasigma S.P.A.) or Dexamethasone (Cat. No: S1322, Batch No: 02, Selleckchem) was used.

The target of the next data set is mouse CD32B (mouse) (UniProt P08101). Kind of data set: receptor saturation at 10 µg/ml AT-130-2; separate experiments not shown in the filing.
For a further data set, the target named is T1, FcγRIIB (Homo sapiens, UniProt P31994).
T1 construct: endogenous in cells; host or cells: peripheral CD19+ B cells in whole blood of human subjects (B-cell NHL / CLL patients)
T1 sequence (P31994 43-310): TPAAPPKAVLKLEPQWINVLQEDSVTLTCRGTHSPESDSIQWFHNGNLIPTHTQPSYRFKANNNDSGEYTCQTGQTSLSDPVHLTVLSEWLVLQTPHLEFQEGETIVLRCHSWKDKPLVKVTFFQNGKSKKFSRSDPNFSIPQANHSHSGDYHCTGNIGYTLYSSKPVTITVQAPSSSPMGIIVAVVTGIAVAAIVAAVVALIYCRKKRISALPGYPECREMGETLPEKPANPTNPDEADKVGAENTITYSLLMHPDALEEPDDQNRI
Kind of data set: FcgRIIb receptor occupancy on peripheral B cells (flow cytometry). The class given is in vivo. The conditions noted are these: 100 mg BI-1206; preliminary data. The procedure:
The FcgRIIb receptor occupancy in humans and hFcgRIIb transgenic mice was analyzed using flow cytometry. Whole blood from was incubated with either 005-005 antibody (targeting hFcgRIIb) or anti-hCD32-AF647 antibody. 005-005 binds the same epitope as BI-1206 but with much lower affinity. In the analysis, the Geo Mean of respectively mAb (005-005 and anti-human CD32) was acquired on the CD19+ cell population. Receptor occupancy (RO) was calculated using the following equations: RO (%)=((Total Receptors-Normalized Free Receptors)*100)/Total Receptors. All replicates of 005-005 geo mean of CD19+ cells were then multiplied by the Normalization factor.
(In flow cytometry, cells or beads pass a laser one at a time.)

Data set [3] has as its system human subjects with non-hodgkins B-cell lymphoma. Kind of data set: Clinical response in patients treated with BI-1206. The class given is in vivo. As to conditions: after incorporation of the premedication regimen into the clinical protocol.
Data set [4] has the same test system. Nature of the data set: Platelet counts in clinical studies with BI-1206.
Text: (§1) Platelet counts, ALT concentrations and IRR grading Platelet counts, ALT concentrations and IRR grading were obtained from clinical sites where analyzed and reported according local standard procedures.
Data set [5] has the same test system. Kind of data set: ALT/AST in clinical studies with BI-1206. The conditions noted are these: ≥70 mg (70-100 mg) BI-1206.
Text: as §1
The test system is the same in data set [6]. Nature of the data set: Infusion related reactions (IRR grading) in clinical studies with BI-1206.
Text: as §1
Part of the data is based on personal communication with individual investigators.
For another data set, the system named is peripheral B lymphocytes. Kind of data set: Peripheral B lymphocyte depletion after BI-1206 infusion. The data set is classed as in vivo, human. As to conditions: 100 mg BI-1206; preliminary data.
Data set [7] deals with human subjects with non-hodgkins B-cell lymphoma. Kind of data set: Cytokine release in plasma/serum after BI-1206 infusion (MSD). The class given is in vivo. The conditions noted are these: ≥70 mg (70-100 mg) BI-1206. The procedure: For cytokine concentrations, frozen plasma samples were thawed and diluted ×2 and x8. Two parallel set of cytokines were analyzed, the proinflammatory assay with IL-6, IL-8, TNF-α, IFN-γ, IL-10, IL-2 and IL-4 (MesoScale Discovery (MSD) #K15049), and the chemokine assay with MIP-113, IL-113, IL-23, IL-12p70, TARC and VEGF (MSD #K15067). The assays followed the manufacturer's protocol as outlined briefly: 50 μL of sample and calibration standard were added to the appropriate MSD plates and incubated. Following washing, 25 μL of SULFO-TAG detection antibody mixture were added to each well of the corresponding plate. The plates were analyzed on a QuickPlex SQ120 Reader instrument (MSD) and cytokine concentration was calculated using the MSD software (Discovery Workbench, 2013; version LSR-4-0-12).

Where “and” joins values, the source holds several entries; their conditions need not be identical. Equal entries are not always repeated. Entries after “also recorded” stand apart in the source; their conditions may differ. A value given as a limit tells only on which side of the number the result lay.

Sequence of mouse CD32B (mouse) (P08101 30-207 limits assumed): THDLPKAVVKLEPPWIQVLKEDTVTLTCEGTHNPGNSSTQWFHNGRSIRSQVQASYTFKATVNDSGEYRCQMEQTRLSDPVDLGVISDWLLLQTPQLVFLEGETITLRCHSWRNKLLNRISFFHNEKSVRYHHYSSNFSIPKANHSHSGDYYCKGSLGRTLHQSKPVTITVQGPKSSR

Consider `O=C(O)COCCN1CCN(C(c2ccccc2)c2ccc(Cl)cc2)CC1` (centres unmarked) [Zyrlex], for which the “effect of anti-histamine premedication alone on platelet decrease” value (from here on “effect … on platelet decrease”) in the data set on wildtype C57/BL6 mice [1] is “did not inhibit IRRs or platelet decrease”. The “effect of anti-histamine premedication alone on IRRs / macroscopic symptoms” value (from here on “effect … on IRRs / macroscopic symptoms”) with wildtype C57/BL6 mice [2] (10 mg/kg) was “The same results were seen; also recorded: did not inhibit IRRs or platelet decrease”. Moreover, the “effect of adding anti-histamine to two doses of corticosteroid” value (“effect of adding anti-histamine” below) in the data set with wildtype C57/BL6 mice [2] is listed as “the protective effect was retained”.

Regarding `CC(C)(C)c1ccc(C(O)CCCN2CCC(C(O)(c3ccccc3)c3ccccc3)CC2)cc1` (stereo not drawn) [anti-histamine], in the data set on wildtype C57/BL6 mice [1], the “effect … on platelet decrease” value was “did seem to improve decrease in platelet counts”. In the data set on wildtype C57/BL6 mice [2], the “inhibition of IRRs by other pre-medications” value was “None of these pre-medications could inhibit IRRs; also recorded: none of the tested substances (anti-PAF, anti-IL-6, anti-histamine and a leukotrien-antagonist) could prevent the IRRs”; the “effect … on IRRs / macroscopic symptoms” value is reported as “did not inhibit macroscopic symptoms”; the “effect of adding anti-histamine” value was “did not affect macroscopic symptoms or platelet counts”.

Take AT-130-2 IgG2a (antibody): the receptor saturation in the data set with mouse CD32B (mouse) came out at 100%.

With `C[C@H]1C[C@H]2[C@@H]3CCC4=CC(=O)C=C[C@]4(C)[C@@]3(F)[C@@H](O)C[C@]2(C)[C@@]1(O)C(=O)CO` [betamethasone], in the data set with wildtype C57/BL6 mice [2] (40 mg/kg only 24 hours before i.v. 10 mg/kg AT-130-2 IgG2a), the “grade of macroscopic symptoms with single premedication” value came out at 1.

On to `CCCCCCCCCCCCCCCCCCNC(=O)OCC(COP(=O)([O-])OCC[n+]1ccsc1)OC` (stereo not drawn) [anti-PAF], for which the “inhibition of IRRs by other pre-medications” value in the data set with wildtype C57/BL6 mice [2] was “None of these pre-medications could inhibit IRRs; also recorded: none of the tested substances (anti-PAF, anti-IL-6, anti-histamine and a leukotrien-antagonist) could prevent the IRRs”.

In the case of “BI-1206: anti-FcγRIIb antibody with light chain SEQ ID No:1 and heavy chain SEQ ID No:2”, in the data set with FcγRIIB, the “duration of receptor saturation” value was “up to 48 hours” and the “receptor occupancy on peripheral B cells” value is approximately 100%. Moreover, the clinical responses result in data set [3] was “Both complete and partial responses have been observed”. Moreover, in data set [4] (70 mg BI-1206, subjects 501-001 and 503-002, two doses of dexamethasone), the platelet decrease result is listed as “no/low platelet decrease”. Further, the “seriousness and resolution of thrombocytopenia” value in data set [4] (70-100 mg / ≥50 mg BI-1206) is “The decrease is transient and most episodes have been resolved within a week; also recorded: has not been serious nor associated with bleeding and most episodes resolved within a week”. Also, the platelets result in [4] (≥50 mg BI-1206) is “transient decrease in platelets”. Also, the “subjects with significant ALT and AST increase” value in data set [5] was 3/14 and 3 out of 16. Also, the “grade of IRR's” value in [6] (30 mg BI-1206, subject 201-003, 10th administration, two doses of dexamethasone) is recorded as 1. The IRRs entry in data set [6] (70 mg BI-1206, subjects 501-001 and 503-002, dexamethasone 12 mg or 4 mg the evening before and 20 mg 30 minutes prior) is reported as “None of the subjects suffered any IRRs; also recorded: Both subjects did not suffer IRRs”. The “grade of IRRs” value in [6] (70 mg BI-1206, subjects 501-001 and 503-002, dexamethasone (20 mg) only 30 minutes prior to infusion) was 2-3 grade. Besides, the “severity and frequency of IRRs after implementation of premedication with two doses of corticosteroids” value in [6] (70-100 mg BI-1206, study 17-BI-1206-02) was “Significantly lower frequency and severity of IRRs; also recorded: statistically significant reduced severity and frequency of IRRs”. Moreover, the “infusion related reactions during BI-1206 infusions” value in data set [6] (i.v. administration, human subjects) is “frequently associated with IRRs; also recorded: Frequent infusion related reactions (IRRs) have been seen”. Further, in the data set with peripheral B lymphocytes, the “peripheral B lymphocytes” value is on record as “transient depletion of peripheral B lymphocytes” and the “time to recovery of peripheral B lymphocytes” value is reported as “approximately 7 days”. The “time to normalization of cytokines” value in [7] was not above 24 h.

As to `Clc1ccc2c(c1)CCc1cccnc1C2=C1CCNCC1` [Aeurius], the “effect … on platelet decrease” value with wildtype C57/BL6 mice [1] is listed as “did not inhibit IRRs or platelet decrease”. Further, the “effect … on IRRs / macroscopic symptoms” value is “did not inhibit IRRs or platelet decrease” in the data set with wildtype C57/BL6 mice [2] (10 mg/kg) and “The same results were seen” in the data set with wildtype C57/BL6 mice [2] (listed as Au, 10 mg/kg). In the data set with wildtype C57/BL6 mice [2], the “effect of adding anti-histamine” value was “the protective effect was retained”.
